The values that follow come from US8420861B2, “Anti-tumor compounds derived from 1,4,5,8-tetrachloroanthraquinone” (priority 2007, dated 2013).

Structures can show the parent of a compound that is named as a salt.

The test system of data set [1] is BOT-2 breast cancer cell line. As to the kind of experiment: Doublet combinations with other chemotherapy drugs, cell kill. It is filed as cell-based, human. The following applies: other drugs included docetaxel, gemcitabine and topotecan. The source says: The synthesized compounds tested were compared to mitoxantrone (Novantrone®) when tested in a tissue culture system using the BOT-2 breast cancer cell line. The MTT assay was used to determine levels of 100% and 50% cell kill. In addition to activity against cancer mitoxantrone has been used to treat certain forms of multiple sclerosis and is approved by the FDA to treat both cancer and multiple sclerosis. Mitoxantrone also has significant immune modulatory effects and could be used to treat severe forms of collagen vascular disorders. The compounds described in the present disclosure would be expected to have similar activities at a greater therapeutic efficacy.
These other drugs included docetaxel, gemcitabine and topotecan.

Data set [2] has as its system BOT-2 human breast cancer cells. As to the kind of experiment: Cytotoxicity by visual inspection / MTT assay, 100% cell kill at serial dilutions. The class given is cell-based. The conditions noted are these: for Activity: Table of Side Chains, scale not given; for activity compared to mitoxantrone: cytotoxicity assay. The text has this:
The MTT assay was used to determine levels of 100% and 50% cell kill. In addition to activity against cancer mitoxantrone has been used to treat certain forms of multiple sclerosis and is approved by the FDA to treat both cancer and multiple sclerosis. Mitoxantrone also has significant immune modulatory effects and could be used to treat severe forms of collagen vascular disorders.
Testing of compounds in the MTT assay. In a 72 well plate, the BOT-2 human breast cancer cells were allowed to grow for 24 hours. Following this growth time, dilutions of the drug was added. The cells were checked for percentage of cell death at 24 and 48 hours. This checking was done by visual appearance of the cells. Rounded up floating cells or disrupted cells indicating cell death. Cells flattened and attached to the bottom of the tissue culture flask indicated alive and healthy cells. At 144 hours MTT.
Visual inspection assay: BOT-2 cancer cells after treatment with an anthracycline or cytotoxic anthraquinone compounds. The dead cells become rounded, detach and float. The compound is initially dissolved in 0.1 N hydrochloric acid or dilute acetic acid. Serial 1 to 4 dilutions of the compound are made with buffered tissue culture media and pipetted into a wells of a 72 well microtiter plate. Determination is made of 100% cell death at 24, 48 and 144 hours for each well. Controls are always run concurrently. […] Previous work has determined if 100% kill is noted there is never re-growth of the tumor cells.
A solution of 1,4,5,8-Tetrakis-[2-(2-aminoethyl)amino]anthraquinone dihydrochloride (T-4) was made of 10 mg/ml in de-ionized water. This was then diluted to 1 mg/ml. This solution was filtered to sterilize. Seventy micro liters (70 μl) of this was mixed with tissue culture media and added to 70 well plate. Two hundred ten (210) cells per well were previously grown for 24 hrs prior to adding the test drug. The test compounds were added in serial 1 to 3 dilutions. 1,4,5,8-Tetrakis-[2-(2-aminoethyl)amino]anthraquinone (T-4) was tested against mitoxantrone, epirubicin, and bis-1,4-aminoethylamino-5,8-dihydroxyanthraquinone. There was also a control in which no drug was added. […] The end point for positive cell kill was 100% cell death.
A solution of 1,4,5,8-Tetrakis-N,N-dimethylaminoethylaminoanthraquinone dihydrochloride was made of 10 mg/ml in de-ionized water. This was then diluted to 1 mg/ml. This solution was filtered to sterilize. 70 μl of this was mixed with tissue culture media and added to 70 well plate. Two hundred ten (210) cells per well were previously grown for 24 hrs prior to adding the test drug. The test compounds were added in serial 1 to 3 dilutions. The 1,4,5,8-Tetrakis-N,N-dimethylaminoethylaminoanthraquinone was tested against mitoxantrone (bis-1,4-hydroxyethylaminoethylamino-5,8-dihydroxyanthraquinone dihydrochloride), epirubicin, and 1,4-bis-[(aminoethyl)amino]anthraquinone. There was also a control in which no drug was added. […] The end point for positive cell kill was 100% cell death.
On the technique in general: Tetrazolium dyes change colour on reduction, which living cells bring about.

For `O=C1c2c(O)ccc(O)c2C(=O)c2c(NCCNCCO)ccc(NCCNCCO)c21` [mitoxantrone, bis-1,4-hydroxyethylaminoethylamino-5,8-dihydroxyanthraquinone dihydrochloride, reference compound], in data set [1], the “cell kill in doublet combination with other chemotherapy drugs” value is recorded as “extent of synergism was not seen”.

In turn, `CNCCN(C)c1ccc(NCCNCCO)c2c1C(=O)c1c(N(C)CCNC)ccc(N(C)CCNC)c1C2=O` [T-2,2,2,1] displayed an Activity in data set [2] of 5.

Turning to `CN(C)CCNc1ccc(NCCN(C)C)c2c1C(=O)c1c(NCCN(C)C)ccc(NCCN(C)C)c1C2=O` [Designation T-2, 1,4,5,8-Tetrakis-[(2-N,N-dimethylaminoethyl)amino]anthraquinone], in data set [2], the Activity was 5 and the “activity compared to mitoxantrone” value is on record as “more active than mitoxantrone”.

In turn, `CN(C)CCNc1ccc(NCCO)c2c1C(=O)c1c(NCCN(C)C)ccc(NCCN(C)C)c1C2=O` [T-2,2,2,3] had an Activity in data set [2] of 5.

Consider `NCCNc1ccc(NCCN)c2c1C(=O)c1c(NCCN)ccc(NCCN)c1C2=O` [Designation T-4, 1,4,5,8-Tetrakis-[2-(2-aminoethyl)amino]anthraquinone], for which, in data set [2], the Activity came to 5 and the “activity compared to mitoxantrone” value was “more active than mitoxantrone”. In data set [2] (starting solution 1 mg/ml, end point 100% cell death), the “100% cell kill went out to (number of 1:4 dilutions)” value is recorded as 5 1:4 dilutions.

As for `O=C1c2c(NCCO)ccc(NCCO)c2C(=O)c2c(NCCO)ccc(NCCO)c21` [Designation T-3, 1,4,5,8-Tetrakis-[(2-hydroxyethyl)amino]anthraquinone], the Activity in data set [2] stood at 1. Moreover, the “activity in cytotoxicity assay” value in data set [2] (end point 100% cell death, 24, 48 and 144 hrs) was “inactive”. In data set [2] (starting solution 1 mg/ml, end point 100% cell death, at 24, 48 and 144 hrs), the “100% cell kill went out to (number of dilutions)” value turned out to be 1 dilutions.

Take `O=C1c2c(NCCNCCO)ccc(NCCNCCO)c2C(=O)c2c(NCCNCCO)ccc(NCCNCCO)c21` [Designation T-1]: in data set [2], the Activity is 5 and the “activity compared to mitoxantrone” value is on record as “more active than mitoxantrone”.

Take `CN(C)c1ccc(NCCCl)c2c1C(=O)c1c(N(C)C)ccc(N(C)C)c1C2=O` [T-2,2,2,8, 1,4,5-Tris-(N,N-dimethylamino),8-(2-chloroethylamino)anthraquinone]: the “activity compared to mitoxantrone” value in data set [2] is “more active than mitoxantrone”.

With “tetrakis-1,4,5,8-hydroxyalkylaminoethylaminoanthraquinone dihydrochloride”, the “cell kill in doublet combination with other chemotherapy drugs” value in data set [1] is recorded as “synergistic cell kill (greater than additive)”.
